Laboratory results as given in the NIST ThermoML archive (doi:10.1016/j.jct.2015.04.006).

Test: mn = molality of the nth substance listed, in mol/kg
Details: 100 kPa, Liquid; for speed of sound: Frequency=3 MHz, Sing-around technique in a fixed-path interferometer; for mass density: Vibrating tube method

CC[N+]1(C)CCOCC1.O=S(=O)([N-]S(=O)(=O)C(F)(F)F)C(F)(F)F + C[S+](C)[O-]
Details | mass density, 298.15 K [kg/m3] | mass density, 303.15 K [kg/m3] | mass density, 308.15 K [kg/m3] | mass density, 313.15 K [kg/m3] | mass density, 318.15 K [kg/m3] | speed of sound, 298.15 K [m/s] | speed of sound, 303.15 K [m/s] | speed of sound, 308.15 K [m/s] | speed of sound, 313.15 K [m/s] | speed of sound, 318.15 K [m/s]
m1 = 0.01623 | 1097.17 | 1092.15 | 1087.13 | 1082.12 | 1077.11 | 1483.4 | 1466.5 | 1449.7 | 1433 | 1416.4
m1 = 0.02434 | 1098.11 | 1093.09 | 1088.07 | 1083.06 | 1078.05 | 1482.8 | 1465.9 | 1449.1 | 1432.4 | 1415.9
m1 = 0.03937 | 1099.83 | 1094.82 | 1089.8 | 1084.79 | 1079.78 | 1481.6 | 1464.8 | 1448 | 1431.3 | 1414.9
m1 = 0.04917 | 1100.95 | 1095.93 | 1090.92 | 1085.91 | 1080.9 | 1480.9 | 1464 | 1447.3 | 1430.7 | 1414.2
m1 = 0.063 | 1102.51 | 1097.5 | 1092.49 | 1087.48 | 1082.47 | 1479.8 | 1463 | 1446.3 | 1429.7 | 1413.3
m1 = 0.07874 | 1104.28 | 1099.27 | 1094.26 | 1089.26 | 1084.25 | 1478.6 | 1461.8 | 1445.2 | 1428.6 | 1412.2
m1 = 0.09932 | 1106.57 | 1101.56 | 1096.55 | 1091.55 | 1086.55 | 1477 | 1460.3 | 1443.7 | 1427.2 | 1410.8
m1 = 0.1197 | 1108.8 | 1103.8 | 1098.79 | 1093.79 | 1088.79 | 1475.5 | 1458.8 | 1442.3 | 1425.8 | 1409.5
m1 = 0.1515 | 1112.25 | 1107.24 | 1102.24 | 1097.25 | 1092.25 | 1473.2 | 1456.5 | 1440 | 1423.6 | 1407.4

CCCCCCCC[N+]1(C)CCOCC1.O=S(=O)([N-]S(=O)(=O)C(F)(F)F)C(F)(F)F + C[S+](C)[O-]
Details | mass density, 298.15 K [kg/m3] | mass density, 303.15 K [kg/m3] | mass density, 308.15 K [kg/m3] | mass density, 313.15 K [kg/m3] | mass density, 318.15 K [kg/m3] | speed of sound, 298.15 K [m/s] | speed of sound, 303.15 K [m/s] | speed of sound, 308.15 K [m/s] | speed of sound, 313.15 K [m/s] | speed of sound, 318.15 K [m/s]
m1 = 0.0104 | 1096.19 | 1091.17 | 1086.16 | 1081.14 | 1076.13 | 1483.5 | 1466.6 | 1449.8 | 1433 | 1416.5
m1 = 0.01752 | 1096.81 | 1091.79 | 1086.78 | 1081.77 | 1076.76 | 1482.7 | 1465.8 | 1449 | 1432.3 | 1415.8
m1 = 0.0266 | 1097.59 | 1092.58 | 1087.57 | 1082.56 | 1077.56 | 1481.7 | 1464.8 | 1448.1 | 1431.4 | 1414.9
m1 = 0.03779 | 1098.55 | 1093.54 | 1088.53 | 1083.53 | 1078.53 | 1480.5 | 1463.7 | 1446.9 | 1430.2 | 1413.8
m1 = 0.04989 | 1099.57 | 1094.57 | 1089.57 | 1084.57 | 1079.57 | 1479.2 | 1462.4 | 1445.7 | 1429 | 1412.6
m1 = 0.06889 | 1101.17 | 1096.17 | 1091.17 | 1086.18 | 1081.19 | 1477.2 | 1460.4 | 1443.7 | 1427.1 | 1410.8
m1 = 0.08629 | 1102.6 | 1097.62 | 1092.62 | 1087.64 | 1082.65 | 1475.3 | 1458.6 | 1441.9 | 1425.4 | 1409.1
m1 = 0.1068 | 1104.29 | 1099.3 | 1094.32 | 1089.34 | 1084.36 | 1473.2 | 1456.5 | 1439.9 | 1423.4 | 1407.1
m1 = 0.1403 | 1106.96 | 1101.99 | 1097.02 | 1092.04 | 1087.08 | 1469.8 | 1453.1 | 1436.6 | 1420.2 | 1404
m1 = 0.1703 | 1109.31 | 1104.34 | 1099.38 | 1094.41 | 1089.45 | 1466.8 | 1450.2 | 1433.8 | 1417.4 | 1401.2

CCCC[N+]1(C)CCOCC1.O=S(=O)([N-]S(=O)(=O)C(F)(F)F)C(F)(F)F + C[S+](C)[O-]
Details | mass density, 298.15 K [kg/m3] | mass density, 303.15 K [kg/m3] | mass density, 308.15 K [kg/m3] | mass density, 313.15 K [kg/m3] | mass density, 318.15 K [kg/m3] | speed of sound, 298.15 K [m/s] | speed of sound, 303.15 K [m/s] | speed of sound, 308.15 K [m/s] | speed of sound, 313.15 K [m/s] | speed of sound, 318.15 K [m/s]
m1 = 0.01276 | 1096.62 | 1091.6 | 1086.58 | 1081.57 | 1076.55 | 1483.5 | 1466.6 | 1449.8 | 1433.1 | 1416.5
m1 = 0.01778 | 1097.14 | 1092.12 | 1087.11 | 1082.09 | 1077.08 | 1483 | 1466.2 | 1449.3 | 1432.6 | 1416.1
m1 = 0.02681 | 1098.08 | 1093.06 | 1088.05 | 1083.03 | 1078.02 | 1482.2 | 1465.4 | 1448.6 | 1431.9 | 1415.4
m1 = 0.04025 | 1099.46 | 1094.44 | 1089.43 | 1084.42 | 1079.41 | 1481 | 1464.2 | 1447.5 | 1430.8 | 1414.3
m1 = 0.05498 | 1100.96 | 1095.95 | 1090.94 | 1085.93 | 1080.93 | 1479.7 | 1462.9 | 1446.2 | 1429.6 | 1413.1
m1 = 0.06956 | 1102.43 | 1097.42 | 1092.42 | 1087.41 | 1082.41 | 1478.5 | 1461.7 | 1445 | 1428.4 | 1412
m1 = 0.08753 | 1104.23 | 1099.22 | 1094.22 | 1089.22 | 1084.22 | 1476.9 | 1460.1 | 1443.5 | 1426.9 | 1410.6
m1 = 0.1103 | 1106.47 | 1101.47 | 1096.47 | 1091.48 | 1086.48 | 1475 | 1458.2 | 1441.6 | 1425.1 | 1408.8
m1 = 0.1334 | 1108.73 | 1103.73 | 1098.73 | 1093.74 | 1088.75 | 1472.9 | 1456.3 | 1439.7 | 1423.3 | 1407
m1 = 0.1687 | 1112.1 | 1107.11 | 1102.12 | 1097.13 | 1092.14 | 1470 | 1453.4 | 1436.9 | 1420.5 | 1404.4
